Assay results as given in patent publication EP4737450A1 (Longwood Pharmaceuticals (Hangzhou) Co., Ltd, priority 2023, dated 2025).
Where two headings read alike, the source gives them in different places.

Key:
[1] = molecular target: FXIa (Homo sapiens, UniProt P03951); assay: Inhibitory activity against FXIa in vitro (biochemical assay)
Experimental: Test Example 1. Test of the inhibitory activities of the compounds of the present invention against plasma kallikrein (PKa), KLK1 and FXIa in vitro.
PKK (R & D, Cat # 2497-SE) and Pro-Phe-Arg-AMC (Nanjing Peptide, Cat # NJP23946) solutions were prepared in reaction buffer (50 mM Tris-HCl, pH 7.5, 250 mM NaCl). The final concentrations of enzyme protein and Pro-Phe-Arg-AMC in the reaction mixture were 10 nM and 60 µM, respectively. The starting concentration of the positive reference substance Avoralstat was 100 nM, 3-fold dilution, 10 + 0 dose. 0.05 µL of compound in 100% DMSO was delivered to a 384-well plate by an acoustic liquid delivery technique (Echo665; nanoliter range). Compound duplex test. 5 µL of 2 × enzyme solution was transferred to a 384 reaction plate and centrifuged at 1000 rpm for 1 minute, incubated at 25°C for 15 minutes; 5 µL of 2 × Pro-Phe-Arg-AMC solution was transferred to a 384 reaction plate, centrifuged at 1000 rpm for 1 minute, incubated at 25°C for 3 hours. […] IC50 values and nonlinear regression curve fitting were obtained using GraphPad Prism software.

[2] = molecular target: T1, plasma kallikrein (PKa) (Homo sapiens, UniProt P03952); assay: Inhibitory activity against plasma kallikrein in vitro (fluorescence intensity enzyme assay, Pro-Phe-Arg-AMC substrate); format: biochemical; conditions: Pro-Phe-Arg-AMC substrate
T1 construct: purchased R & D 2497-SE
Method in brief: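 Fluorescence intensity enzyme assay with 10 nM enzyme and 60 µM Pro-Phe-Arg-AMC (final concentrations). Compounds in DMSO, tested in duplicate over a dose series. IC50 from nonlinear regression curve fitting.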

[3] = molecular target: KLK1 (Homo sapiens, UniProt P06870); assay: Inhibitory activity against KLK1 in vitro (biochemical assay)
Description: Test Example 1. Test of the inhibitory activities of the compounds of the present invention against plasma kallikrein (PKa), KLK1 and FXIa in vitro. […]

[4] = plasma kallikrein enzyme assay, read-out: PKa IC50
[5] = PKa IC50, plasma kallikrein enzyme assay

T1 sequence (P03952 391-638 limits assumed): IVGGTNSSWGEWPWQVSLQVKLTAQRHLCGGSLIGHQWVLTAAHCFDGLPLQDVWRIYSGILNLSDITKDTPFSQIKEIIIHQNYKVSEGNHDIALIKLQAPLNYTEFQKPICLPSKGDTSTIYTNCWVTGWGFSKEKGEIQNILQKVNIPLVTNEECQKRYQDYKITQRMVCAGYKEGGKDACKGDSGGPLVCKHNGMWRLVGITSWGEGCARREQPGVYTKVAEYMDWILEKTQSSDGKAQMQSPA
T1 sequence (P03952 20-390 partner limits assumed): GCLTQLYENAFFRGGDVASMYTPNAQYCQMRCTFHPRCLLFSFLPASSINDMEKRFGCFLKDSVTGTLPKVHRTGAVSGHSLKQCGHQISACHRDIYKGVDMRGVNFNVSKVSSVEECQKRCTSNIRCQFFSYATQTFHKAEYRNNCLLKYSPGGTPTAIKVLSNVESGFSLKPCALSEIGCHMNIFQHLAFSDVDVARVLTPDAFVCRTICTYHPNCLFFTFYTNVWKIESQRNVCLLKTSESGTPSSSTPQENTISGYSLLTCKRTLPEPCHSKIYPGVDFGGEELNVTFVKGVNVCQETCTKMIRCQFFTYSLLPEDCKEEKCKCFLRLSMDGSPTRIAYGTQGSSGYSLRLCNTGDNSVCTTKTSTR
FXIa, sequence (P03951 388-625 limits assumed): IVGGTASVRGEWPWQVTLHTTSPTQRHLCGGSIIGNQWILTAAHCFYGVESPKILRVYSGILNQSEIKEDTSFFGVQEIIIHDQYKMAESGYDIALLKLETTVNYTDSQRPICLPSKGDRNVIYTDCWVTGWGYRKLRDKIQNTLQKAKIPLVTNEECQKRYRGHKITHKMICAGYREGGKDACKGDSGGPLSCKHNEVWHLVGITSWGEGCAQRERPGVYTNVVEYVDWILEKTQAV
FXIa, sequence (P03951 19-387 partner limits assumed): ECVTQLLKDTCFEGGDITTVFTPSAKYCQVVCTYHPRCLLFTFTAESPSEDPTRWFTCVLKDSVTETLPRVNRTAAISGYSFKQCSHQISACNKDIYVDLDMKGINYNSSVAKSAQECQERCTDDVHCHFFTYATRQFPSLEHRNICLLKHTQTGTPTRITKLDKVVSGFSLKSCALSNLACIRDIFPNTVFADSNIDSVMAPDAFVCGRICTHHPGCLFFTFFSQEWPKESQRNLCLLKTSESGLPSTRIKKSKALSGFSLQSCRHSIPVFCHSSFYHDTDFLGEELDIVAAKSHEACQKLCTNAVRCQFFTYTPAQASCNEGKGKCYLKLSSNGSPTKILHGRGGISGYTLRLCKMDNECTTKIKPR
KLK1, sequence (P06870 25-262, species assumed): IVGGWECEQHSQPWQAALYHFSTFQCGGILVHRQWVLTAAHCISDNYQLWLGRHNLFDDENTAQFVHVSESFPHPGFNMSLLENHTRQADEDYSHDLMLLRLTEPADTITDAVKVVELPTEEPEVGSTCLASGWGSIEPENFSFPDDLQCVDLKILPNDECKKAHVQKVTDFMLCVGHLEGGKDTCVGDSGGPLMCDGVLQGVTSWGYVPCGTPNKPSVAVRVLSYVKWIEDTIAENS

IC50 ([1]; values given in µM) [µM]	IC50 [2, 4] [nM]	IC50 ([3]; values given in µM) [µM]	IC50 ([1]; values in nM) [µM]	IC50 ([3]; values in nM) [µM]	Compound	IC50 [2, 5] [nM]
> 10	0.26	> 10			N=C(N)c1ccc(CNC(=O)c2cnn(Cc3ccc(CC4CC4)cc3)c2)cc1 [Compound 105]	
> 10	0.56	> 10			N=C(N)c1ccc(CNC(=O)c2cnn(Cc3ccc(CC4CC4)nc3)c2)cc1 [Compound 373]	
> 10	0.79	> 10			N=C(N)c1ccc(CNC(=O)c2cnn(Cc3ccc(Cn4ccccc4=O)cc3)c2)cn1 [Compound 353]	
> 10	0.07	> 10			Cc1cc(C)n(Cc2ccc(Cn3cc(C(=O)NCc4ccc(C(=N)N)cc4)cn3)cc2)n1 [Compound 366]	
> 10	1.42	> 10			Cn1cnc2cnc(CNC(=O)c3cnn(Cc4ccc(Cn5ccccc5=O)cc4)c3)c(F)c21 [Compound 377]	
> 10	2.02	> 10			O=C(NCc1ncc2c(c1F)NCC2)c1cn(Cc2ccc(Cn3ccccc3=O)cc2)nc1C(F)(F)F [Compound 390]	
> 10	1.13	> 10			Cc1nc(C)n(Cc2ccc(Cn3cc(C(=O)NCc4ccc(C(=N)N)cc4F)cn3)cc2)n1 [Compound 351]	
> 10	2.23	> 10			Cn1ccc2cnc(CNC(=O)c3cnn(Cc4ccc(Cn5ccccc5=O)cc4)c3)c(F)c21 [Compound 356]	
> 10	0.898	> 10			N=C(N)c1ccc(CNC(=O)c2cnn(Cc3cn4cc(C5CC5)ccc4n3)c2)cc1 [Compound 15]	
> 10	0.92	> 10			COCc1nn(Cc2ccc(Cn3ccccc3=O)cc2)cc1C(=O)NCc1cn2c(n1)CNCC2 [Compound 118]	
> 10	2.17	> 10			O=C(NCc1ncc2c(c1F)NCC2)c1cnn(Cc2ccc(Cn3ccccc3=O)cc2)c1 [Compound 384]	
> 10	0.48	> 10			COCc1nn(Cc2ccc(CC3CC3)cc2)cc1C(=O)NCc1ccc(C(=N)N)cc1 [Compound 121]	
> 10	1.68	> 10			N=C(N)c1ccc(CNC(=O)c2cnn(Cc3ccc(OC4CCCC4)c(C(F)(F)F)c3)c2)cc1 [Compound 386]	
> 10	0.82	> 10			CCOc1cc(Cn2cc(C(=O)NCc3ccc(C(=N)N)cc3)cn2)ccc1CC1CC1 [Compound 264]	
> 10	0.85	> 10			COc1cc(Cn2cc(C(=O)NCc3ccc(C(=N)N)cc3)cn2)cc(OC)c1CC1CC1 [Compound 375]	
> 10	2.71	> 10			N=C(N)c1ccc(CNC(=O)c2cnn(Cc3ccc(CC4CC4)cc3)c2)cc1F [Compound 321]	
> 10	0.12	> 10			Cc1cc(C)n(Cc2ccc(Cn3cc(C(=O)NCc4ccc(C(=N)N)cc4F)cn3)cc2)n1 [Compound 355]	
> 10	> 100	> 10			COc1cc(Cn2cc(C(=O)NCc3ccc(C(=N)N)cc3)cn2)cc(OC)c1C(=O)C1CC1 [Compound 371]	
> 10	1.98	> 10			N=C(N)c1ccc(CNC(=O)c2cnn(Cc3cc(F)c(OCC4CC4)c(F)c3)c2)cc1 [Compound 345]	
> 10	10.2	> 10			Cn1cc(F)c2cnc(CNC(=O)c3cnn(Cc4ccc(Cn5ccccc5=O)cc4)c3)c(F)c21 [Compound 370]	
> 10	0.18	> 10			CCc1c(N)nc(C)c(CNC(=O)c2cnn(Cc3ccc(Cn4ccccc4=O)cc3)c2)c1C [Compound 253]	
> 10	2.44	> 10			COCc1nn(Cc2ccc(Cn3ccccc3=O)cc2)cc1C(=O)NCc1ncc2c(c1F)NCC2 [Compound 392]	

The remaining lines, values behind:

Compound	IC50 ([1]; values given in µM) [µM]	IC50 [2, 4] [nM]	IC50 ([3]; values given in µM) [µM]	IC50 ([1]; values in nM) [µM]	IC50 ([3]; values in nM) [µM]	IC50 [2, 5] [nM]
Cc1cc(N)nc(C)c1CNC(=O)c1cc(Cc2ccc(Cn3ccccc3=O)cc2)cn1C [Compound 62]	> 10	0.12	> 10			
COc1ccc(F)c(CNC(=O)c2cn(Cc3ccc(Cn4cc(F)ccc4=O)cc3)nc2C2CC2(F)F)c1F (stereo not drawn) [Compound 218]	> 10	2.16	> 10			
Cc1cc(N)nc(C)c1CNC(=O)c1noc(Cc2ccc(Cn3ccccc3=O)cc2)n1 [Compound 48]	> 10	0.38	> 10			
COCc1nn(Cc2ccc(Cn3ccccc3=O)cc2)cc1C(=O)NCc1c(C)cn2cncc2c1C [Compound 147]	> 10		> 10			1.57
Cc1cc(N)nc(C)c1CNC(=O)c1nnn(Cc2ccc(Cn3ccccc3=O)cc2)n1 [Compound 55]	> 10	0.16	> 10			
COCc1nn(Cc2ccc(Cn3ccccc3=O)cc2)cc1C(=O)NCc1c(C)cc2nccn2c1C [Compound 143]	> 10	0.65	> 10			
COCc1nn(Cc2ccc(Cn3ccccc3=O)cc2)cc1C(=O)NCc1ncc2c(c1F)N(C)CC2 [Compound 391]	> 10	1.4	> 10			
COCc1nn(Cc2ccc(Cn3ccccc3=O)cc2)cc1C(=O)NCc1ccc2c(N)nccc2c1 [Compound 71]	> 10	0.19	> 10			
Cc1cc(N)nc(C)c1CNC(=O)c1ccn(Cc2ccc(Cn3ccccc3=O)cc2)c1 [Compound 61]	> 10	0.12	> 10			
Cc1cc(N)nc(C)c1CNC(=O)c1ccn(Cc2ccc(Cn3cccc(C)c3=O)cc2)n1 [Compound 75]	> 10	0.22	> 10			
COCc1nn(Cc2ccc(Cn3ccccc3=O)cc2)cc1C(=O)NCc1ncc2ccn(C)c2c1F [Compound 363]	> 10	2.14	> 10			
COc1ccnc(CNC(=O)c2cn(Cc3ccc(Cn4ccccc4=O)cc3)nc2C2C(C)(C)C2(F)F)c1F (stereo not drawn) [Compound 263]	> 10	0.59	> 10			
Cc1nc(N)c(C)c(C)c1CNC(=O)c1ncn(Cc2ccc(Cn3ccccc3=O)cc2)n1 [Compound 250]	> 10	1.9	> 10			
Cn1ccc2cnc(CNC(=O)c3cn(Cc4ccc(Cn5ccccc5=O)cc4)nc3C(F)(F)F)c(F)c21 [Compound 378]	> 10	1.41	> 10			
N#Cc1cc(N2CC3C(C2)C3(F)F)ccc1Cn1cnc(C(=O)NCc2ccc3c(N)nccc3c2)n1 (stereo not drawn) [Compound 43]	> 10	0.92	> 10			
COc1ccnc(CNC(=O)c2cn(Cc3ccc(Cn4ccccc4=O)cc3)nc2N2CC(C)(O)C2)c1F [Compound 296]	> 10		> 10			2.22
COc1ccc(Cl)c(CNC(=O)c2cn(Cc3ccc(Cn4ccccc4=O)cc3)nc2COCC2(F)COC2)c1F [Compound 289]	> 10	2.31	> 10			
Cc1cc(N)nc(C)c1CNC(=O)c1ccc(Cc2ccc3ncc(Cl)cc3c2)s1 [Compound 3, N-((6-amino-2,4-dimethylpyridin-3-yl)methyl)-5-((3-chloroquinolin-6-yl)methyl)thiophene-2-carboxamide]		9.27		< 0.5	< 0.5	
COCc1cn(Cc2ccc(Cn3ccccc3=O)cc2)nc1C(=O)NCc1c(C)cc(N)nc1C [Compound 60]	> 10	0.65	> 10			
N#Cc1cc(N2CC3C(C2)C3(F)F)ccc1Cn1cnc(C(=O)NC2CCc3cc(N)ncc32)n1 (single isomer, unassigned) [Compound 54]	> 10	0.46	> 10			
COCc1nn(Cc2c(F)c(F)c(Cn3ccccc3=O)c(F)c2F)cc1C(=O)NCc1c(C)cc(N)nc1C [Compound 28]	> 10	2.33			> 0.5	
Cc1cc2nccn2c(C)c1CNC(=O)c1cn(Cc2ccc(N3CC4C(C3)C4(F)F)cc2C#N)nc1C(F)(F)F (stereo not drawn) [Compound 204]	> 10	1.23	> 10			
N=C(N)c1ccc(CNC(=O)c2cnn(Cc3ccc(OC4CC4)c(C(F)(F)F)c3)c2)cc1 [Compound 379]	> 10		> 10			0.97
COCc1nn(Cc2c(F)c(F)c(Cn3cc(F)ccc3=O)c(F)c2F)cc1C(=O)NCc1c(C)cc(N)nc1C [Compound 49]	> 10	2.78	> 10			
